Data reported in the NIST ThermoML archive (doi:10.1016/j.jct.2019.06.022).

Test: mn = molality of the nth substance listed, in mol/kg
Conditions: 298.15 K, 101.3 kPa, Liquid; for binary diffusion coefficient: Taylor dispersion method; for mass density: Vibrating tube method

O=C([O-])c1ccccc1O.[Na+] [sodium salicylate] + O
Conditions | binary diffusion coefficient [m2/s] | mass density [kg/m3]
m1 = 0.001004 | 1.06e-09 | 996.965
m1 = 0.002502 | 1.05e-09 | 997.145
m1 = 0.005026 | 1.04e-09 | 997.318
m1 = 0.007532 | 1.02e-09 | 997.434
m1 = 0.01004 | 1.02e-09 | 997.909
m1 = 0.05045 | – | 999.801
m1 = 0.1014 | – | 1003.01
